Data reported in publication PMC3355094 (PLoS Pathogens, 2012).
Values joined by “and” are separate entries in the source; they are usually repeats but may differ in a detail not shown here. Equal entries are not always repeated. Where two headings read alike, the source gives them in different places.

Assays:
[1] = system: CCL1; experiment: Glycan array analysis of CCL1 (CFG mammalian glycan array V4.2); assay type: binding, Coprinopsis cinerea; settings: Alexa Fluor 488 labeled CCL1 200 µg/ml, array V4.2, average of triplicates
Protocol: (§1) Purified CCL1 and CCL2 were fluorescently labeled with Alexa Fluor 488 (Invitrogen) according to the manufacturer's protocol and used (at a final concentration of 200 µg/ml) to probe versions 4.2 and 3.1, respectively, of the mammalian glycan array offered by Core H of the Consortium for Functional Glycomics (CFG).

[2] = system: CCL2; experiment: Glycan array analysis of CCL2 (CFG mammalian glycan array V3.1); assay type: binding, Coprinopsis cinerea; settings: Alexa Fluor 488 labeled CCL2 200 µg/ml, array V3.1, average of triplicates
Protocol: as §1

[3] = molecular target: RSL; assay type: binding; settings: read-out: KD [μmol]; cited from earlier work
[4] = molecular target: T1, CCL2 (Wild type) (Coprinopsis cinerea, UniProt B3GA02); experiment: biochemical; assay type: binding
T1 construct: recombinant from E. coli, eight N-terminal His-residues (His8), monomer
T1 sequence (B3GA02 2-142): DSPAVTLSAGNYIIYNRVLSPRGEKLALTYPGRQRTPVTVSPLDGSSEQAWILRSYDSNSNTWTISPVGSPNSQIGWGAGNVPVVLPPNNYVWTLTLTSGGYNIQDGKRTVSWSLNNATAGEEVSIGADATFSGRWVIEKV

[5] = molecular target: T2, CCL2 wild-type (Coprinopsis cinerea, UniProt B3GA02); assay type: binding
T2 sequence (B3GA02 2-142 limits assumed): as the sequence (B3GA02 2-142) above

[6] = molecular target: MOA; experiment: Literature thermodynamic binding data of lectin-carbohydrate interactions compiled in Table S6 for comparison; conditions not given; parameters: method as in values quoted from other papers; settings: read-out: KD [μmol]; cited from earlier work
[7] = molecular target: T2, CCL2 wild-type; assay type: binding; remark: listed apart in the source
[8] = molecular target: Calreticulin; experiment: Literature thermodynamic binding data of lectin-carbohydrate interactions compiled in Table S6 for comparison; conditions not given; parameters: method as in values quoted from other papers; settings: read-out: KD [μmol]; cited from earlier work
[9] = parameters: method as in ref 3 of Table S6 (Gupta et al. 2008); settings: ligand Glc1,3Man1,2ManOMe; ref 3 of Table S6 (Gupta et al. 2008); cited from earlier work
[10] = ligand Glc1,3Man1,2Man1,2Man; ref 2 of Table S6 (Kozlov et al. 2010); cited from earlier work
[11] = parameters: method as in ref 5 of Table S6 (Turnbull et al. 2004); settings: ligand GM1os; ref 5 of Table S6 (Turnbull et al. 2004); cited from earlier work
[12] = carbohydrate titrated to CCL2 wild-type

Compound | RFU (relative fluorescence units) [2] | other results
6-H2PO3Man-Sp8 | 118.9 RFU | RFU (relative fluorescence units) [1]: 3 RFU
C[C@@H]1O[C@@H](O[C@H]2[C@H](O[C@H]3[C@H](O)[C@@H](O)C(O)O[C@@H]3CO)O[C@H](CO)[C@H](O)[C@@H]2O)[C@@H](O)[C@H](O)[C@@H]1O (some centres unmarked) [2-Fucosyllactose, 2'-fucosyllactose] | – | Kd [3]: 250 nM
CO[C@@H]1O[C@@H](C)[C@@H](O)[C@@H](O)[C@@H]1O [FucOMe, methyl fucopyranoside] | – | Kd [3]: 730 nM
CO[C@@H]1O[C@H](CO)[C@@H](O)[C@H](O[C@@H]2O[C@@H](C)[C@@H](O)[C@@H](O)[C@@H]2O)[C@H]1NC(C)=O [Fucα1,3GlcNAc-OMe, Fucα1,3GlcNAc methyl glycoside] | – | Kd [4]: > 500000 nM
CO[C@@H]1O[C@H](CO)[C@@H](O)[C@H](O[C@@H]2O[C@@H](C)[C@@H](O)[C@@H](O)[C@@H]2O)[C@H]1NC(C)=O [Fucα1,3GlcNAc-OMe] | – | NMR titration [5]: no binding
CC(=O)N[C@H]1C(O)O[C@H](CO)[C@@H](O[C@@H]2O[C@H](CO)[C@H](O)[C@H](O[C@H]3O[C@H](CO)[C@H](O)[C@H](O)[C@H]3O)[C@H]2O)[C@@H]1O (some centres unmarked) [Gal1,3Gal1,4GlcNAc, Galα1,3Galβ1,4GlcNAc] | – | Kd [6]: 42300 nM
C[C@@H]1O[C@@H](O[C@H]2C(O)O[C@H](CO)[C@H](O)[C@@H]2O[C@H]2O[C@H](CO)[C@H](O)[C@H](O)[C@H]2O)[C@@H](O)[C@H](O)[C@@H]1O (some centres unmarked) [Galα1,3[Fucα1,2]Gal, blood group B trisaccharide] | – | Kd [6]: 36000 nM
CC(=O)NC1C(OC2C(CO)OC(O)C(O)C2O)OC(CO)C(OC2OC(CO)C(O)C(O)C2O)C1OC1OC(C)C(O)C(O)C1O (centres unmarked) [Galβ1,4[Fucα1,3]GlcNAcβ1,4Gal] | – | NMR titration [5]: large chemical shift deviations, slow to intermediate exchange
CO[C@@H]1O[C@H](CO)[C@@H](O[C@@H]2O[C@H](CO)[C@H](O)[C@H](O)[C@H]2O)[C@H](O[C@@H]2O[C@@H](C)[C@@H](O)[C@@H](O)[C@@H]2O)[C@H]1NC(C)=O [Galβ1,4[Fucα1,3]GlcNAcβ1-OMe, Lewis X trisaccharide methyl glycoside] | – | Kd [4]: 456000 nM
CO[C@@H]1O[C@H](CO)[C@@H](O[C@@H]2O[C@H](CO)[C@H](O)[C@H](O)[C@H]2O)[C@H](O[C@@H]2O[C@@H](C)[C@@H](O)[C@@H](O)[C@@H]2O)[C@H]1NC(C)=O [Galβ1,4[Fucα1,3]GlcNAcβ1-OMe] | – | drop in affinity [7]: ~300 fold
CO[C@H]1O[C@H](CO)[C@@H](O)[C@H](O)[C@@H]1O[C@H]1O[C@H](CO)[C@@H](O)[C@H](O[C@H]2O[C@H](CO)[C@@H](O)[C@H](O)[C@H]2O)[C@@H]1O [Glc1,3Man1,2ManOMe, Glcα1,3Manα1,2Manα-OMe (methyl glycoside)] | – | Kd [8]: 1800 nM
CC(=O)N[C@H]1[C@H](O[C@H]2[C@H](O[C@@H]3O[C@@H](C)[C@@H](O)[C@@H](O)[C@@H]3O)[C@@H](NC(C)=O)[C@H](OCCCCCC(=O)O)O[C@@H]2CO)O[C@H](CO)[C@@H](O)[C@@H]1O [GlcNAcβ1,4[Fucα1,3]GlcNAcβ1-sp, GlcNAcβ1,4[Fucα1,3]GlcNAcβ-O(CH2)5COONa] | – | NMR titration [5, 12]: large chemical shift deviations, slow exchange; ΔH [7]: -11.9 kcal/mol; −TΔS [7]: 3.9 kcal/mol
OC[C@H]1O[C@H](O[C@@H]2[C@H](O)[C@@H](O[C@@H]3[C@@H](O[C@@H]4C(O)O[C@H](CO)[C@@H](O)[C@@H]4O)O[C@H](CO)[C@@H](O)[C@@H]3O)O[C@H](CO)[C@H]2O)[C@H](O)[C@@H](O)[C@@H]1O (some centres unmarked) [Glcα1,3Manα1,2Manα1,2Man, Glcα1,3Manα1,2Manα1,2Man tetrasaccharide] | – | Kd [8]: 770 nM
(Gal1-4GlcNAc)2-3,6-GalNAc-Sp8 | 397.4 RFU | –
-D-Gal–Sp8 | 280.7 RFU and 194.7 RFU | –
-GalNAc–Sp8 | 151.8 RFU and 273.6 RFU | –
-GlcNAc–Sp8 | 160.7 RFU | –
-L-Fuc–Sp9 | 136.8 RFU | –
-Neu5Ac-Sp8 | 122.4 RFU | –
-Neu5Ac–Sp8 | 247.4 RFU | –
-Neu5Ac–Sp11 | 119.3 RFU | –
Calreticulin | – | –TΔS [9]: -0.813 kcal/mol; –ΔH [9]: 7.15 kcal/mol; –TΔS [10]: 3.75 kcal/mol; –ΔH [10]: 12 kcal/mol
Cholera toxin B subunit (CTB): cholera-toxin B subdomain | – | –TΔS [11]: 7.36 kcal/mol; –ΔH [11]: 17.3 kcal/mol
Gal1-3GlcNAc1-2Man1-3(Gal1-3GlcNAc1-2Man1-6)Man1-4GlcNAc1-4GlcNAc-Sp19 | 453.7 RFU | –
Gal1-4GlcNAc1-2Man1-3(Gal1-4GlcNAc1-2Man1-6)Man1-4GlcNAc1- | 575.8 RFU | –
GlcNAc1-2Man1-3(GlcNAc1-2Man1-6)Man1-4GlcNAc1-4GlcNAc-Sp13 | 674.3 RFU | RFU (relative fluorescence units) [1]: 68 RFU
GlcNAc1-3(GlcNAc1-4)(GlcNAc1-6)GlcNAc-Sp8 | 103.1 RFU | RFU (relative fluorescence units) [1]: 264 RFU

Compound | RFU (relative fluorescence units) [2] | other results
Man1-3(Man1-6)Man1-4GlcNAc1-4GlcNAc-Sp13 | 525.3 RFU | RFU (relative fluorescence units) [1]: 116 RFU
Neu5Ac2-6Gal1-4GlcNAc1-2Man1-3(Neu5Ac2-6Gal1-4GlcNAc1-2Man1-6)Man1-4GlcNAc1-4GlcNAc-Sp12 | 183.9 RFU | RFU (relative fluorescence units) [1]: 122 RFU
Neu5Ac2-8Neu5Ac2-8Neu5AcSp8 | 66.6 RFU | –
Neu5Ac2-8Neu5Ac-Sp17 | 155.0 RFU | –
Neu5Acα2,3Galβ1,4Glc | – | NMR titration [5, 12]: no binding
Neu5Gc2-6Gal1-4GlcNAc-Sp8 | 182.6 RFU | –
NeuAc2-3[6OSO3]Gal1-4GlcNAc–Sp8 | 40316.6 RFU | –
[3OSO3]Gal1-3(Fuc1-4)GlcNAc–Sp8 | 628.7 RFU | –
[3OSO3]Gal1-3GalNAc-Sp8 | 216.8 RFU | RFU (relative fluorescence units) [1]: 118 RFU
[3OSO3]Gal1-3GlcNAc–Sp8 | 403.9 RFU | –
[3OSO3]Gal1-4(6OSO3)Glc–Sp0 | 151.3 RFU | –
[3OSO3]Gal1-4(6OSO3)Glc–Sp8 | 1039.1 RFU | –
[3OSO3]Gal1-4(Fuc1-3)GlcNAc–Sp8 | 265.1 RFU | –
[3OSO3]Gal1-4Glc-Sp8 | 152.3 RFU | RFU (relative fluorescence units) [1]: 29 RFU
[3OSO3]Gal1-4GlcNAc-Sp8 | 110.8 RFU | RFU (relative fluorescence units) [1]: 110 RFU
[3OSO3]Gal1-4GlcNAc–Sp0 | 115.6 RFU | –
[3OSO3]Gal1-4[6OSO3]GlcNAc-Sp8 | 101.0 RFU | RFU (relative fluorescence units) [1]: 333 RFU
[3OSO3]Gal–Sp8 | 75.5 RFU | –
[3OSO3][6OSO3]Gal1-4GlcNAc-Sp0 | 193.4 RFU | RFU (relative fluorescence units) [1]: 25 RFU
[3OSO3][6OSO3]Gal1-4[6OSO3]GlcNAc-Sp0 | 367.7 RFU | RFU (relative fluorescence units) [1]: 3 RFU
[4OSO3]Gal1-4GlcNAc-Sp8 | 350.4 RFU | RFU (relative fluorescence units) [1]: 17 RFU
[4OSO3][6OSO3]Gal1-4GlcNAc-Sp0 | 222.7 RFU | RFU (relative fluorescence units) [1]: 5 RFU
[6OSO3]Gal1-4GlcNAc–Sp8 | 133.9 RFU | –
[6OSO3]Gal1-4Glc–Sp0 | 307.4 RFU | –
[6OSO3]Gal1-4Glc–Sp8 | 269.4 RFU | –
[6OSO3]Gal1-4[6OSO3]Glc-Sp8 | 298.1 RFU | RFU (relative fluorescence units) [1]: 20 RFU
[6OSO3]GlcNAc–Sp8 | 141.7 RFU | –
